Assay results: US20230219886A1, “NOVEL SELENO-NSAID ANALOGS AND USES THEREOF” (THE PENN STATE RESEARCH FOUNDATION, priority 2020, published 2023)
Where two headings read alike, the source gives them in different places.

Assays:
H1299 (lung carcinoma) = experiment: MTT cell viability assay, H1299; details: Homo sapiens, NCI-H1299, 48 h, read-out: cell viability
Procedure: (§1) Cell Culture Conditions. The cell lines were obtained from the American Type Culture Collection (ATCC). PANC-1 and Caco-2 cell lines were maintained in DMEM medium (Gibco); HT-29, HCT-116 and RKO cells were maintained in McCoy's 5A medium (Gibco); and DU-145 and H1299 cells were maintained in RPMI 1640 medium (Gibco), supplemented with 10% fetal bovine serum (FBS; Gibco) and 1% antibiotics (10.00 units/mL penicillin and 10.00 mg/mL streptomycin; Gibco). Cells were preserved in tissue culture flasks at 37° C. and 5% CO2. Culture medium was replaced every three days.
(§2) Cell Viability Assay. The effect of each compound on cell viability was tested using the MTT assay (81). Briefly, 9000 cells/well were grown in 96-well plates for 12 h. Then these cells were incubated with either DMSO (control) or nine different concentration between 0.01-50 μM of the test compounds for 24, 48, and 72 h. Three hours before the termination point, 20 μL of MTT were added to measure cellular viability. The resultant formazan crystals were dissolved in 50 μL of DMSO, and absorbance was measured at 570 nm and 630 nm wavelengths. IC50, GI50, TGI and LC50 values were calculated using OriginPro 8.5.1.
(§3) Evaluation of the antiproliferative activities of the novel molecules. […] These four cell lines were treated with each compound at three concentrations (5, 25 and 50 μM) for 48 h.

[1] = test system: DU-145 (prostate carcinoma); experiment: MTT cell viability assay, DU-145; details: Homo sapiens, DU-145, 48 h, read-out: cell viability
Procedure: as §1, §2, §3

RKO CRC cells = experiment: cells; details: Homo sapiens
Procedure: as §1, §2

CACO-2 CRC cells = experiment: cells; details: Homo sapiens
Procedure: as §1, §2

HCT-116 CRC cells = experiment: MTT cell viability assay, HCT-116; assay type: cell-based, human; details: Homo sapiens, read-out: IC50
Procedure: as §1, §2

[2] = test system: PANC-1 (pancreatic carcinoma); experiment: MTT cell viability assay, Panc-1; details: Homo sapiens, PANC-1, 48 h, read-out: cell viability
Procedure: as §1, §2, §3

HT-29 (CRC) = experiment: MTT cell viability assay, HT-29; details: for viability at 5 µM / viability at 25 µM / viability at 50 µM: read-out: cell viability; for CC50: read-out: LC50
Procedure: as §1, §2, §3

TK-10 (renal) = experiment: NCI-60 one-dose screen, TK-10; assay type: cell-based, human; details: TK-10, 10 μM, 48 h
Excerpt: (§4) NCI-60 Analysis. 1a and 6a were submitted to National Cancer Institute's (NCI) Developmental Therapeutics Program (DTP) where the cytotoxicity profile was investigated across their 60 human cancer cell line panel according to the protocol available on multiple sources (71-73, 83). The COMPARE algorithm (73), was utilized to evaluate the activity profile of 6a in comparison to those of known cytotoxins established in marketed drugs and standard agent data sets in order to correlate plausible modes of action.
(§5) NCI-60 analysis. Compounds 1a, 5a and 6a were submitted to the National Cancer Institute's (NCI) Developmental Therapeutics Program (DTP). NCI-60 program consists in a panel of 60 human cancer cell lines from a variety of cancers, including refractory tumors such as lung, ovarian, CRC, breast, brain and renal cancers, and melanomas together with more treatable cancers such as leukemias (71). 1a [NSC: 803071], 5a [NSC: 820332] and 6a [NSC: 811013] were initially screened at one dose (10 μM) at 48 h. Then, NCI selected only compound 6a to perform dose-response characterization (72).

DU-145 (prostate) = experiment: NCI-60 one-dose screen, DU-145; assay type: cell-based, human; details: DU-145, 10 μM, 48 h
Excerpt: as §4, §5

NCI-60 cell lines = experiment: NCI-60 one-dose screen, mean of all cell lines; assay type: cell-based, human; details: 10 μM, 48 h
Excerpt: as §4, §5

SK-MEL-28 (melanoma) = experiment: NCI-60 one-dose screen, SK-MEL-28; assay type: cell-based, human; details: SK-MEL-28, 10 μM, 48 h
Excerpt: as §4, §5

[3] = test system: human CRC cells (HT-29, HCT-116, RKO and CACO-2); experiment: MTT assay, panel of four CRC cells; assay type: cell-based; details: 4 CRC cells
Procedure: Cell Culture Conditions. […] Culture medium was replaced every three days.
Evaluation of the antiproliferative activity of methylseleno-NSAIDs, MSA and NSAIDs alone or in combination. […] CRC cells were treated for 24, 48 and 72 h at different concentrations to stablish the dose-response curves.

BT-549 (breast) = experiment: NCI-60 one-dose screen, BT-549; assay type: cell-based, human; details: BT-549, 10 μM, 48 h
Excerpt: as §4, §5

SMILES: COc1ccc2c(c1)c(CC(=O)O)c(C)n2C(=O)c1ccc(Cl)cc1 [Inn, indomethacin, reference compound]
- viability at 5 µM (H1299 (lung carcinoma)): 76 ± 23.7%
- viability at 25 µM (H1299 (lung carcinoma)): 70.4 ± 19.8%
- viability at 50 µM (H1299 (lung carcinoma)): 66.2 ± 14%
- viability at 5 µM [1]: 89.6 ± 12.3%
- viability at 25 µM [1]: 97.6 ± 21%
- viability at 50 µM [1]: 96.2 ± 18.5%
- IC50 (RKO CRC cells; 24 h): > 50 µM
- IC50 (RKO CRC cells; 48 h): > 50 µM
- IC50 (RKO CRC cells; 72 h): > 50 µM
- IC50 (CACO-2 CRC cells; Caco-2, 24 h): > 50 µM
- IC50 (CACO-2 CRC cells; Caco-2, 48 h): > 50 µM
- IC50 (CACO-2 CRC cells; Caco-2, 72 h): > 50 µM
- IC50 (HCT-116 CRC cells; HCT-116, 24 h): > 50 µM
- IC50 (HCT-116 CRC cells; HCT-116, 48 h): > 50 µM
- IC50 (HCT-116 CRC cells; HCT-116, 72 h): > 50 µM
- viability at 5 µM [2]: 94.1 ± 8.3%
- viability at 25 µM [2]: 85.9 ± 10.5%
- viability at 50 µM [2]: 83.2 ± 6.3%
- TGI (HT-29 (CRC); HT-29, 24 h): >50 µM
- TGI (HT-29 (CRC); HT-29, 48 h): >50 µM
- TGI (HT-29 (CRC); HT-29, 72 h): >50 µM
- GI50 (HT-29 (CRC); Homo sapiens, HT-29, 24 h): > 50 µM
- IC50 (HT-29 (CRC); Homo sapiens, HT-29, 24 h): > 50 µM
- GI50 (HT-29 (CRC); Homo sapiens, HT-29, 48 h): > 50 µM
- IC50 (HT-29 (CRC); Homo sapiens, HT-29, 48 h): > 50 µM
- viability at 5 µM (HT-29 (CRC); Homo sapiens, HT-29, 48 h): 100 ± 8.4%
- viability at 25 µM (HT-29 (CRC); Homo sapiens, HT-29, 48 h): 99.8 ± 14.2%
- viability at 50 µM (HT-29 (CRC); Homo sapiens, HT-29, 48 h): 98.3 ± 13.4%
- GI50 (HT-29 (CRC); Homo sapiens, HT-29, 72 h): > 50 µM
- IC50 (HT-29 (CRC); Homo sapiens, HT-29, 72 h): > 50 µM

SMILES: COc1ccc2c(c1)c(CC(=O)[Se]C)c(C)n2C(=O)c1ccc(Cl)cc1 [Compound 5a, Se-methyl 2-(1-(4-chlorobenzoyl)-5-methoxy-2-methyl-1H-indol-3-yl)ethane-selenoate]
- GP (TK-10 (renal)): −58.40%
- viability at 5 µM (H1299 (lung carcinoma)): 49.5 ± 9.4%
- viability at 25 µM (H1299 (lung carcinoma)): 37 ± 5.6%
- viability at 50 µM (H1299 (lung carcinoma)): 32.4 ± 5.8%
- viability at 5 µM [1]: 52.1 ± 1.5%
- viability at 25 µM [1]: 34.5 ± 3%
- viability at 50 µM [1]: 27.4 ± 1.7%
- GP (DU-145 (prostate)): −7.90%
- IC50 (RKO CRC cells; 24 h): > 50 µM
- IC50 (RKO CRC cells; 48 h): 10.1 ± 6.9 µM
- IC50 (RKO CRC cells; 72 h): 11.6 ± 5.9 µM
- IC50 (CACO-2 CRC cells; Caco-2, 24 h): > 50 µM
- IC50 (CACO-2 CRC cells; Caco-2, 48 h): 4.2 ± 1.7 µM
- IC50 (CACO-2 CRC cells; Caco-2, 72 h): 5.5 ± 1.1 µM
- GP mean value towards all cell lines (NCI-60 cell lines): 4.01%
- IC50 (HCT-116 CRC cells; HCT-116, 24 h): > 50 µM
- IC50 (HCT-116 CRC cells; HCT-116, 48 h): 5.6 ± 2.6 µM
- IC50 (HCT-116 CRC cells; HCT-116, 72 h): 18.7 ± 4.9 µM
- viability at 5 µM [2]: 61.9 ± 4.4%
- viability at 25 µM [2]: 66.6 ± 1.9%
- viability at 50 µM [2]: 60.2 ± 5.5%
- GP (SK-MEL-28 (melanoma)): −7.85%
- anti-tumoral activity versus MSA and NSAIDs as single agents or combined [3]: higher anti-tumoral activity
- increase on cytotoxic potency compared with parent NSAID scaffolds (HT-29 (CRC)): three-fold
- TGI (HT-29 (CRC); HT-29, 24 h): >50 µM
- TGI (HT-29 (CRC); HT-29, 48 h): 0.6 ± 0.5 µM
- TGI (HT-29 (CRC); HT-29, 72 h): 5.1 ± 2.2 µM
- GI50 (HT-29 (CRC); Homo sapiens, HT-29, 24 h): 4.9 ± 2.2 µM
- IC50 (HT-29 (CRC); Homo sapiens, HT-29, 24 h): > 50 µM
- CC50 (HT-29 (CRC); Homo sapiens, HT-29, 24 h): > 50 µM
- GI50 (HT-29 (CRC); Homo sapiens, HT-29, 48 h): 3.2 ± 1.9 µM
- IC50 (HT-29 (CRC); Homo sapiens, HT-29, 48 h): 3.3 ± 0.9 µM
- CC50 (HT-29 (CRC); Homo sapiens, HT-29, 48 h): > 50 µM
- viability at 5 µM (HT-29 (CRC); Homo sapiens, HT-29, 48 h): 26.3 ± 2.9%
- viability at 25 µM (HT-29 (CRC); Homo sapiens, HT-29, 48 h): 17.9 ± 3.7%
- viability at 50 µM (HT-29 (CRC); Homo sapiens, HT-29, 48 h): 18 ± 3.5%
- GI50 (HT-29 (CRC); Homo sapiens, HT-29, 72 h): 2.9 ± 0.8 µM
- IC50 (HT-29 (CRC); Homo sapiens, HT-29, 72 h): 3.3 ± 0.3 µM
- CC50 (HT-29 (CRC); Homo sapiens, HT-29, 72 h): > 50 µM
- cytotoxicity at 5 µM (HT-29 (CRC); Homo sapiens, HT-29, read-out: inhibition in cell viability): 75 to 80%
- GP (BT-549 (breast)): −80.79%
